Test results as given in US11028078B2 (The Johns Hopkins University, priority 2011, dated 2021).
Read-outs that look alike come from different tables or passages of the source.

Experiments:
CYP3A4 = target: T1, CYP3A4 (Homo sapiens, UniProt P08684); experiment: CYP3A4 enzyme assay (Vivid CYP3A4 Green Screening Kit); type: in vitro ADME; details: for CYP3A4 Inhibition (compared to intracozanole at 1 μm): % enzyme inhibition at 1 μM drug / % enzyme inhibition at 1 μM itraconazole; for CYP3A4 inhibition in the initial screening: 1 μM
T1 construct: purchased ThermoFisher P2857; host or cells: baculosomes
Procedure: And CYP3A4 inhibition was initially determined using a cell-free fluorescence-based assay at a final concentration of 1 μM (Table 7).
CYP3A4 enzyme assay. CYP3A4 enzyme activity was tested using Vivid™ CYP3A4 Green Screening Kit (ThermoFisher, #P2857) using the manufacturer's protocol. Briefly, CYP3A4 baculosomes and drugs were incubated 10 min at 37° C. Then Vivid® Substrates were added and the fluorescence (ex/em:485/520) were read every 1 min for 60 minute.

HUVEC = HUVEC proliferation assay ([3H]thymidine incorporation); type: cell-based, human; details: HUVEC; for IC50: Homo sapiens; for Proliferation (IC50/IC50 Itra): Table 7, relative to itraconazole
In short: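 Pooled HUVEC at passage eight or lower, grown in EGM-2 medium; proliferation measured by [3H]thymidine incorporation as in an earlier published protocol.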

[1] = 3H thymidine incorporation, in μM, read-out: Proliferation IC50
[2] = read-out: IC50 for inhibition of HUVEC proliferation

T1 sequence (P08684 whole entry): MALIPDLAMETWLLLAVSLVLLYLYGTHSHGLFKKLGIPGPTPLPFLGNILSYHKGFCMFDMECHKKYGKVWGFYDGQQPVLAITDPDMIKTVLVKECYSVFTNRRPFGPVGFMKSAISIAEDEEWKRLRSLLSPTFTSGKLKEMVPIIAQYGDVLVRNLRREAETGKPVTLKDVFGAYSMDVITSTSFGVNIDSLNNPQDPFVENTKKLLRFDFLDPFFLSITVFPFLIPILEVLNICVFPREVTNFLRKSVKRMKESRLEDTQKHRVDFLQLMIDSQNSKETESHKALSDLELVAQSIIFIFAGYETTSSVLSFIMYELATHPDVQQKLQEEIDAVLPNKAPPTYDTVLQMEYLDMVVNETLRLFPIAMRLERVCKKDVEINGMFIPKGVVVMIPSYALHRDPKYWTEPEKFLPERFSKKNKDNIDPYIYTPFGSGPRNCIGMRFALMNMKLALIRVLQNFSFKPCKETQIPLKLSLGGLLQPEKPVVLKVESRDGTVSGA

Q: What does the source list for CCC(C)n1ncn(-c2ccc(N3CCN(c4ccc(OC[C@@H]5CO[C@@](Cn6ccnc6C)(c6ccc(Cl)cc6Cl)O5)cc4)CC3)cc2)c1=O (stereo partly drawn) [Compound 235, 1-sec-butyl-4-(4-(4-(4-(((2S,4R)-2-(2,4-dichlorophenyl)-2-((2-methyl-1H-imidazol-1-yl)methyl)-1,3-dioxolan-4-yl)methoxy)phenyl)piperazin-1-yl)phenyl)-1H-1,2,4-triazol-5(4H)-one]?
A: CYP3A4 Inhibition (compared to intracozanole at 1 μm) (CYP3A4): 0.85; IC50 (HUVEC; [1]): 0.173 µM

Q: CCC(C)n1ncn(-c2ccc(N3CCN(c4ccc(OC[C@@H]5CO[C@@](CBr)(c6ccc(Cl)cc6Cl)O5)cc4)CC3)cc2)c1=O (stereo partly drawn) [Compound 257, 4-(4-(4-(4-(((2S,4R)-2-(bromomethyl)-2-(2,4-dichlorophenyl)-1,3-dioxolan-4-yl)methoxy)phenyl)piperazin-1-yl)phenyl)-1-sec-butyl-1H-1,2,4-triazol-5(4H)-one] was tested. Which “CYP3A4 Inhibition (compared to intracozanole at 1 μm)” value (CYP3A4) did it give?
A: 0.03

Q: What about the IC50 (HUVEC; [1]) of the same molecule?
A: 0.512 µM

Q: For CCC(C)n1ncn(-c2ccc(N3CCN(c4ccc(OC[C@@H]5CO[C@@](CN6CCN(C)CC6)(c6ccc(Cl)cc6Cl)O5)cc4)CC3)cc2)c1=O (stereo partly drawn) [Compound 265, 1-(sec-butyl)-4-(4-(4-(4-(((2S,4R)-2-(2,4-dichlorophenyl)-2-((4-methylpiperazin-1-yl)methyl)-1,3-dioxolan-4-yl)methoxy)phenyl)piperazin-1-yl)phenyl)-1H-1,2,4-triazol-5(4H)-one], which “CYP3A4 Inhibition (compared to intracozanole at 1 μm)” value (CYP3A4) is on record?
A: 0.21

Q: What about the IC50 (HUVEC; [1]) of the same molecule?
A: 0.396 µM

Q: What does the source list for CCC(C)n1ncn(-c2ccc(N3CCN(c4ccc(OC[C@@H]5CO[C@@](Cn6ccnc6-c6ccccc6)(c6ccc(Cl)cc6Cl)O5)cc4)CC3)cc2)c1=O (stereo partly drawn) [Compound 246, 1-sec-butyl-4-(4-(4-(4-(((2S,4R)-2-(2,4-dichlorophenyl)-2-((2-phenyl-1H-imidazol-1-yl)methyl)-1,3-dioxolan-4-yl)methoxy)phenyl)piperazin-1-yl)phenyl)-1H-1,2,4-triazol-5(4H)-one]?
A: CYP3A4 Inhibition (compared to intracozanole at 1 μm) (CYP3A4): 0.27; IC50 (HUVEC; [1]): 0.136 µM

Q: With CCC(C)n1ncn(-c2ccc(N3CCN(c4ccc(OC[C@@H]5CO[C@@](Cn6cc(C(F)(F)F)nc6C)(c6ccc(Cl)cc6Cl)O5)cc4)CC3)cc2)c1=O (stereo partly drawn) [Compound 239, 1-(sec-butyl)-4-(4-(4-(4-(((2S,4R)-2-(2,4-dichlorophenyl)-2-((2-methyl-4-(trifluoromethyl)-1H-imidazol-1-yl)methyl)-1,3-dioxolan-4-yl)methoxy)phenyl)piperazin-1-yl)phenyl)-1H-1,2,4-triazol-5(4H)-one] as the molecule, how does the “CYP3A4 inhibition in the initial screening” value (CYP3A4) read?
A: eliminated

Q: What about the “CYP3A4 Inhibition (compared to intracozanole at 1 μm)” value (CYP3A4) of the same molecule?
A: No inhibition

Q: And the IC50 (HUVEC; [1])?
A: 0.441 µM

Q: Which results are given for CCC(C)n1ncn(-c2ccc(N3CCN(c4ccc(OC[C@@H]5CO[C@@](CN6CCNCC6)(c6ccc(Cl)cc6Cl)O5)cc4)CC3)cc2)c1=O (stereo partly drawn) [Compound 266, 1-(sec-butyl)-4-(4-(4-(4-(((2S,4R)-2-(2,4-dichlorophenyl)-2-(piperazin-1-ylmethyl)-1,3-dioxolan-4-yl)methoxy)phenyl)piperazin-1-yl)phenyl)-1H-1,2,4-triazol-5(4H)-one]?
A: CYP3A4 Inhibition (compared to intracozanole at 1 μm) (CYP3A4): 1.09; IC50 (HUVEC; [1]): 0.608 µM

Q: For CCC(C)n1ncn(-c2ccc(N3CCN(c4ccc(OC[C@@H]5CO[C@@](Cn6ncnn6)(c6ccc(Cl)cc6Cl)O5)cc4)CC3)cc2)c1=O (stereo partly drawn) [Compound 249, 4-(4-(4-(4-(((2S,4R)-2-((2H-tetrazol-2-yl)methyl)-2-(2,4-dichlorophenyl)-1,3-dioxolan-4-yl)methoxy)phenyl)piperazin-1-yl)phenyl)-1-sec-butyl-1H-1,2,4-triazol-5(4H)-one], which “CYP3A4 Inhibition (compared to intracozanole at 1 μm)” value (CYP3A4) is on record?
A: 0.2

Q: What about the “Proliferation (IC50/IC50 Itra)” value (HUVEC) of the same molecule?
A: 0.6

Q: And the IC50 (HUVEC; [1])?
A: 0.102 µM

Q: CCC(C)n1ncn(-c2ccc(N3CCN(c4ccc(OC[C@@H]5CO[C@@](Cn6cnc(C)c6)(c6ccc(Cl)cc6Cl)O5)cc4)CC3)cc2)c1=O (stereo partly drawn) [Compound 238, 1-sec-butyl-4-(4-(4-(4-(((2S,4R)-2-(2,4-dichlorophenyl)-2-((4-methyl-H-imidazol-1-yl)methyl)-1,3-dioxolan-4-yl)methoxy)phenyl)piperazin-1-yl)phenyl)-1H-1,2,4-triazol-5(4H)-one] was tested. Which “CYP3A4 Inhibition (compared to intracozanole at 1 μm)” value (CYP3A4) did it give?
A: 1.18

Q: What about the IC50 (HUVEC; [1]) of the same molecule?
A: 0.102 µM

Q: Which “CYP3A4 Inhibition (compared to intracozanole at 1 μm)” value (CYP3A4) does the source give for CCC(C)n1ncn(-c2ccc(N3CCN(c4ccc(OC[C@@H]5CO[C@@](Cn6cc(C)nc6C)(c6ccc(Cl)cc6Cl)O5)cc4)CC3)cc2)c1=O (stereo partly drawn) [Compound 240, 1-(sec-butyl)-4-(4-(4-(4-(((2S,4R)-2-(2,4-dichlorophenyl)-2-((2,4-dimethyl-1H-imidazol-1-yl)methyl)-1,3-dioxolan-4-yl)methoxy)phenyl)piperazin-1-yl)phenyl)-1H-1,2,4-triazol-5(4H)-one] here?
A: 0.45

Q: And the IC50 (HUVEC; [1])?
A: 0.492 µM

Q: Which results are given for CCC(C)n1ncn(-c2ccc(N3CCN(c4ccc(OC[C@@H]5CO[C@@](Cn6ccnc6C(C)C)(c6ccc(Cl)cc6Cl)O5)cc4)CC3)cc2)c1=O (stereo partly drawn) [Compound 245, 1-sec-butyl-4-(4-(4-(4-(((2S,4R)-2-(2,4-dichlorophenyl)-2-((2-isopropyl-1H-imidazol-1-yl)methyl)-1,3-dioxolan-4-yl)methoxy)phenyl)piperazin-1-yl)phenyl)-1H-1,2,4-triazol-5(4H)-one]?
A: CYP3A4 Inhibition (compared to intracozanole at 1 μm) (CYP3A4): 0.07; Proliferation (IC50/IC50 Itra) (HUVEC): 0.4; IC50 (HUVEC; [1]): 0.068 µM

Q: How did the “CYP3A4 Inhibition (compared to intracozanole at 1 μm)” value (CYP3A4) turn out when CCC(C)n1ncn(-c2ccc(N3CCN(c4ccc(OC[C@@H]5CO[C@@](CC6CCCC6)(c6ccc(Cl)cc6Cl)O5)cc4)CC3)cc2)c1=O (stereo partly drawn) [Compound 261, 1-sec-butyl-4-(4-(4-(4-(((2R,4R)-2-(cyclopentylmethyl)-2-(2,4-dichlorophenyl)-1,3-dioxolan-4-yl)methoxy)phenyl)piperazin-1-yl)phenyl)-1H-1,2,4-triazol-5(4H)-one] was run?
A: No inhibition

Q: What about the IC50 (HUVEC; [1]) of the same molecule?
A: 0.512 µM

Q: What does the source list for CCC(C)n1ncn(-c2ccc(N3CCN(c4ccc(OC[C@@H]5CO[C@@](Cn6cccn6)(c6ccc(Cl)cc6Cl)O5)cc4)CC3)cc2)c1=O (stereo partly drawn) [Compound 234, 4-(4-(4-(4-(((2S,4R)-2-((1H-pyrazol-1-yl)methyl)-2-(2,4-dichlorophenyl)-1,3-dioxolan-4-yl)methoxy)phenyl)piperazin-1-yl)phenyl)-1-sec-butyl-1H-1,2,4-triazol-5(4H)-one]?
A: CYP3A4 Inhibition (compared to intracozanole at 1 μm) (CYP3A4): No inhibition; IC50 (HUVEC; [1]): 0.307 µM

Q: Which “CYP3A4 Inhibition (compared to intracozanole at 1 μm)” value (CYP3A4) does the source give for CCC(C)n1ncn(-c2ccc(N3CCN(c4ccc(OC[C@@H]5CO[C@@](Cn6cnc(C)n6)(c6ccc(Cl)cc6Cl)O5)cc4)CC3)cc2)c1=O (stereo partly drawn) [Compound 250, 1-sec-butyl-4-(4-(4-(4-(((2S,4R)-2-(2,4-dichlorophenyl)-2-((3-methyl-1H-1,2,4-triazol-1-yl)methyl)-1,3-dioxolan-4-yl)methoxy)phenyl)piperazin-1-yl)phenyl)-1H-1,2,4-triazol-5(4H)-one] here?
A: 0.36

Q: And the IC50 (HUVEC; [2])?
A: 0.27 µM

Q: What about the IC50 (HUVEC; [1]) of the same molecule?
A: 0.272 µM

Q: What does the source list for CCC(C)n1ncn(-c2ccc(N3CCN(c4ccc(OC[C@@H]5CO[C@@](Cn6cnc(C(F)(F)F)n6)(c6ccc(Cl)cc6Cl)O5)cc4)CC3)cc2)c1=O (stereo partly drawn) [Compound 251, 1-sec-butyl-4-(4-(4-(4-(((2S,4R)-2-(2,4-dichlorophenyl)-2-((3-(trifluoromethyl)-1H-1,2,4-triazol-1-yl)methyl)-1,3-dioxolan-4-yl)methoxy)phenyl)piperazin-1-yl)phenyl)-1H-1,2,4-triazol-5(4H)-one]?
A: CYP3A4 inhibition in the initial screening (CYP3A4): eliminated CYP3A4 inhibition; CYP3A4 Inhibition (compared to intracozanole at 1 μm) (CYP3A4): No inhibition; IC50 (HUVEC; [2]): 0.27 µM; IC50 (HUVEC; [1]): 0.272 µM
